Test results published in patent EP0095294A1, “Deoxyuridine compounds, methods for preparing them and their use in medicine” (priority 1982, dated 1983).
Structures can show the parent of a compound that is named as a salt. Where two headings read alike, the source gives them in different places.

Legend:
Assay type in all cases: cell-based
[1] = test system: Herpes simplex type 1 virus (HFEM strain); assay: Plaque reduction test in virus-infected Vero cells
Method: (§1) Vero (African Green Monkey Kidney) cells were grown to confluence in 24 well multidishes, each well being 1.6cm in diameter. The cells were infected with Herpes simplex type 1 virus (HFEM strain) and overlaid with 0.5ml of 0.9% agarose (w/v) in maintenance medium. Test compounds prepared in maintenance medium in concentrations ranging from 100 to 0.03pg/ml in half-log dilution steps, were added in 0.5ml volume. The virus infected cultures were then incubated at 37° for 4 days before fixing in 4% formaldehyde solution and staining with carbolfuchsin.

in vitro [2] = conditions: african green monkey, vero cells
Method: as §1

in vitro [3] = conditions: african green monkey; minimum concentration of test compound which caused cytotoxicity; Vero cells, 4 days at 37°; highest concentration tested 100; read-out: MTD
[4] = test system: Vero (African Green Monkey Kidney) cells; assay: in vitro; conditions: minimum concentration of test compound which caused cytotoxicity; Vero cells, 4 days at 37°; highest concentration tested 100
Method: as §1

[5] = Human alphaherpesvirus 1, Vero, 96 h, read-out: PDD50, concentration causing 50% reduction in number of virus plaques, HSV-1 HFEM strain, 4 days at 37°
[6] = Human alphaherpesvirus 1, 96 h, concentration causing 50% reduction in number of virus plaques, HSV-1 HFEM strain, 4 days at 37°, molar units, read-out: PDD50 (the source's name)
[7] = Human alphaherpesvirus 1, 96 h, concentration causing 50% reduction in number of virus plaques, HSV-1 HFEM strain, 4 days at 37°, read-out: PDD50 (the source's name)
[8] = Human alphaherpesvirus 1, Vero, 96 h, read-out: PDD50, concentration causing 50% reduction in number of virus plaques, HSV-1 HFEM strain, 4 days at 37°, molar units

| Structure (SMILES) | IC50 [1, 6] | IC50 [1, 7] | MCC at 96 h (in vitro [2]) | IC50 [1, 5] | MCC at 96 h (in vitro [3]) | IC50 [1, 8] | MTD [4] |
| --- | --- | --- | --- | --- | --- | --- | --- |
| CCOC(=O)OC[C@H]1O[C@@H](n2cc(/C=C/Br)c(=O)[nH]c2=O)C[C@@H]1OC(=O)CCC(=O)[O-].[Na+] | – | – | – | 6.3 µg/mL | – | – | – |
| COC(=O)OC[C@H]1O[C@@H](n2cc(/C=C/Br)c(=O)[nH]c2=O)C[C@@H]1OC(=O)OC [Example 1, 5-(E-2-Bromovinyl)-2'-deoxy-3',5'-bis-0-methoxycarbonyl-uridine] | 11800 nM | 5.3 µg/mL | > 100 µg/mL | – | – | – | – |
| CCOC(=O)n1c(=O)c(/C=C/Br)cn([C@H]2C[C@H](O)[C@@H](CO)O2)c1=O [Example 7, 5-(E-2-Bromovinyl)-2'-deoxy-3-ethoxycarbonyluridine] | 12300 nM | 5 µg/mL | – | – | > 100 µg/mL | – | – |
| CCCCC(=O)O[C@H]1C[C@H](n2cc(/C=C/Br)c(=O)n(C(=O)CCCC)c2=O)O[C@@H]1COC(=O)OCC [Example 8, 5-(E-2-Bromovinyl)-2'-deoxy-5'-0-ethoxycarbonyl-3,3'-0-bisvaleryluridine] | 3000 nM | 1.7 µg/mL | > 100 µg/mL | – | – | – | – |
| CCCCC(=O)n1c(=O)c(/C=C/Br)cn([C@H]2C[C@H](O)[C@@H](COC(=O)OCC)O2)c1=O [Example 10, 5-(E-2-Bromovinyl)-2'-deoxy-5'-0-ethoxycarbonyl-3-valeryl-uridine] | 6700 nM | 3.3 µg/mL | > 100 µg/mL | – | – | – | – |
| CCOC(=O)OC[C@H]1O[C@@H](n2cc(/C=C/Br)c(=O)[nH]c2=O)C[C@@H]1OP(=O)([O-])[O-].[Na+].[Na+] [Example 12, 5-(E-2-Bromovinyl)-2'-deoxy-5'-O-ethoxycarbonyluridine 3'-Phosphate Disodium Salt] | – | – | – | 12 µg/mL | – | 23000 nM | >100 µg/mL |
| CCOC(=O)OC[C@H]1O[C@@H](n2cc(/C=C/Br)c(=O)[nH]c2=O)C[C@@H]1OP(=O)(O)O [Example 13, 5-(E-2-Bromovinyl)-2'-deoxy-5'-0-ethoxycarbonyluridine 3'-Phosphate Monosodium Salt] | 7500 nM | 3.8 µg/mL | – | – | > 100 µg/mL | – | – |
| CCCCOC(=O)OC[C@H]1O[C@@H](n2cc(/C=C/Br)c(=O)[nH]c2=O)C[C@@H]1O [Example 15, 5-(E-2-Bromovinyl)-5'-0-n-butoxycarbonyl-2'-deoxyuridine] | 600 nM | 0.25 µg/mL | > 100 µg/mL | – | – | – | – |
| CC(C)COC(=O)OC[C@H]1O[C@@H](n2cc(/C=C/Br)c(=O)[nH]c2=O)C[C@@H]1OC(=O)OCC(C)C [Example 16, 5-(E-2-Bromovinyl)-3',5'-bis-0-isobutoxycarbonyl-2'-deoxyuridine] | 800 nM | 0.44 µg/mL | 100 µg/mL | – | – | – | – |
| CC(C)COC(=O)OC[C@H]1O[C@@H](n2cc(/C=C/Br)c(=O)[nH]c2=O)C[C@@H]1O [Example 17, 5-(E-2-Bromovinyl)-5'-O-isobutoxycarbonyl-2'-deoxyuridine] | 500 nM | 0.22 µg/mL | > 100 µg/mL | – | – | – | – |
| CC(C)(C)OC(=O)OC[C@H]1O[C@@H](n2cc(/C=C/Br)c(=O)[nH]c2=O)C[C@@H]1O [Example 18, 5-(E-2-Bromovinyl)-5'-O-t-butoxycarbonyl-2'-deoxyuridine] | 700 nM | 0.28 µg/mL | > 100 µg/mL | – | – | – | – |
| CC(C)(C)OC(=O)OC[C@H]1O[C@@H](n2cc(/C=C/Br)c(=O)[nH]c2=O)C[C@@H]1OC(=O)OC(C)(C)C [Example 19, 5-(E-2-Bromovinyl)-3',5'-bis-O-t-butoxycarbonyl-2^1-deoxyuridine] | 3800 nM | 2 µg/mL | > 100 µg/mL | – | – | – | – |
| CC(C)(C)OC(=O)O[C@H]1C[C@H](n2cc(/C=C/Br)c(=O)[nH]c2=O)O[C@@H]1CO [Example 20, 5-(E-2-Bromovinyl)-3'-O-t-butoxycarbonyl-2^1-deoxyuridine] | 400 nM | 0.18 µg/mL | > 100 µg/mL | – | – | – | – |
| O=C(OC[C@H]1O[C@@H](n2cc(/C=C/Br)c(=O)[nH]c2=O)C[C@@H]1O)Oc1ccc([N+](=O)[O-])cc1 [Example 24, 5-(E-2-Bromovinyl)-2'-deoxy-5'-O-(p-nitrophenoxycarbonyl)uridine] | 1200 nM | 0.6 µg/mL | 100 µg/mL | – | – | – | – |
| CCOC(=O)OC[C@H]1O[C@@H](n2cc(/C=C/Br)c(=O)[nH]c2=O)C[C@@H]1OC(=O)CCC(=O)[O-].[Na+] [Sodium Salt] | – | – | – | – | > 100 µg/mL | 12000 nM | – |

More lines, main results first:

| IC50 [1, 6] | IC50 [1, 7] | MCC at 96 h (in vitro [2]) | Structure (SMILES) | IC50 [1, 5] | MCC at 96 h (in vitro [3]) | IC50 [1, 8] | MTD [4] |
| --- | --- | --- | --- | --- | --- | --- | --- |
| 1900 nM | 0.74 µg/mL | > 100 µg/mL | COC(=O)O[C@H]1C[C@H](n2cc(/C=C/Br)c(=O)[nH]c2=O)O[C@@H]1CO [Example 2, 5-(E-2-Bromovinyl)-2'-deoxy-3'-0-methoxycarbonyluridine] | – | – | – | – |
| 3800 nM | 1.5 µg/mL | > 100 µg/mL | COC(=O)OC[C@H]1O[C@@H](n2cc(/C=C/Br)c(=O)[nH]c2=O)C[C@@H]1O [Example 3, 5-(E-2-Bromovinyl)-2'-deoxy-5'-O-methoxycarbonyluridine] | – | – | – | – |
| 2300 nM | 1.1 µg/mL | > 100 µg/mL | CCOC(=O)OC[C@H]1O[C@@H](n2cc(/C=C/Br)c(=O)[nH]c2=O)C[C@@H]1OC(=O)OCC [Example 4, 5-(E-2-Bromovinyl)-2'-deoxy-3',5'-bis-0-ethoxycarbonyluridine] | – | – | – | – |
| 700 nM | 0.28 µg/mL | > 100 µg/mL | CCOC(=O)OC[C@H]1O[C@@H](n2cc(/C=C/Br)c(=O)[nH]c2=O)C[C@@H]1O [Example 5, 5-(E-2-Bromovinyl)-2'-deoxy-5'-0-ethoxycarbonyluridine] | – | – | – | – |
| 1100 nM | 0.43 µg/mL | > 100 µg/mL | CCOC(=O)O[C@H]1C[C@H](n2cc(/C=C/Br)c(=O)[nH]c2=O)O[C@@H]1CO [Example 6, 5-(E-2-Bromovinyl)-2'-deoxy-3'-0-ethoxycarbonyluridine] | – | – | – | – |
| 3000 nM | 1.5 µg/mL | > 100 µg/mL | CCCCC(=O)O[C@H]1C[C@H](n2cc(/C=C/Br)c(=O)[nH]c2=O)O[C@@H]1COC(=O)OCC [Example 9, 5-(E-2-Bromovinyl)-2'-deoxy-5'-O-ethoxyarbonyl-3'-O-valeryluridine] | – | – | – | – |
| 900 nM | 0.39 µg/mL | > 100 µg/mL | CCCOC(=O)OC[C@H]1O[C@@H](n2cc(/C=C/Br)c(=O)[nH]c2=O)C[C@@H]1O [Example 14, 5-(E-2-Bromovinyl)-2'-deoxy-5'-0-propoxycarbcnyluridine] | – | – | – | – |
| 1700 nM | 0.72 µg/mL | > 100 µg/mL | C=CCOC(=O)OC[C@H]1O[C@@H](n2cc(/C=C/Br)c(=O)[nH]c2=O)C[C@@H]1O [Example 21, 5'-0-Allyloxycarbonyl-5-(E-2-bromovinyl)-2'-deoxyuridine] | – | – | – | – |
| 100 nM | 0.05 µg/mL | > 100 µg/mL | O=C(OCc1ccccc1)OC[C@H]1O[C@@H](n2cc(/C=C/Br)c(=O)[nH]c2=O)C[C@@H]1O [Example 22, 5'-O-Benzyloxycycarbonyl-5-(E-2-bromovinyl)-2'-deoxyuridine] | – | – | – | – |
| 400 nM | 0.18 µg/mL | > 100 µg/mL | O=C(OC[C@H]1O[C@@H](n2cc(/C=C/Br)c(=O)[nH]c2=O)C[C@@H]1O)Oc1ccccc1 [Example 23, 5-(E-2-Bromovinyl)-5'-0-phenoxycarbonyl-2'-deoxyuridine] | – | – | – | – |
| 2100 nM | 0.88 µg/mL | > 100 µg/mL | CC(C)OC(=O)OC[C@H]1O[C@@H](n2cc(/C=C/Br)c(=O)[nH]c2=O)C[C@@H]1O [Example 25, 5-(E-2-Bromovinyl)-2'-deoxy-5'-0-isopropoxycarbonyluridine] | – | – | – | – |
| 1800 nM | 0.76 µg/mL | > 100 µg/mL | O=C(OCCO)OC[C@H]1O[C@@H](n2cc(/C=C/Br)c(=O)[nH]c2=O)C[C@@H]1O [Example 26, 5-(E-2-Bromovinyl)-2'-deoxy-5'-0-(2-hydroxyethox^ycarbonyl)-uridine] | – | – | – | – |
| 4600 nM | 1.5 µg/mL | > 100 µg/mL | C=Cc1cn([C@H]2C[C@H](O)[C@@H](COC(=O)OCC)O2)c(=O)[nH]c1=O [Example 27, 2^1-Deoxy-5^1-O-ethoxycarbonyl-5-vinyluridine] | – | – | – | – |
